{"source": "patent US20220008401A1", "about": "“COMPOSITIONS AND METHODS FOR TREATING PULMONARY DISEASE WITH MATRIX METALLOPROTEINASE INHIBITORS” (DARSHA LLC, priority 2019, published 2022)", "key": {"[1]": {"test": "Lung and serum levels after nebulized Compound 1 in mice (mass spectroscopy)", "format": "in vivo", "procedure": "The compound was administered with a nebulizer of (FIG. 1A). With a 9 cc Medication Nebulizer, a dose of liquid medicine was prepared to a final concentration of 5 ml (3 mg/mL). Treatment was for approximately 20-30 minutes until all liquid was delivered. […] The nebulizer includes a Hospital grade Schuco air compressor 100, Blue top medication nebulizer 110, Plastic collar 120, White elbow hose connector 130, 7′ crush proof 02 tubing to air compressor 140, and MPC Aerosol Pie Cage 150. Technical Specifications of the nebulizing system were as follows:\nThe pie cage 150 has 12 slots to hold 12 mice.\n10 mice were divided into three trial groups:\nLow dose group: 3 mice at 2 mg dose (˜5 mg/kg) Medium dose group: 3 mice at 5 mg dose (˜12 mg/kg) High dose group: 4 mice at 10 mg dose (˜35 mg/kg)\nThe mice were nebulized within their respective dosing group for fifteen minutes (starting with the lowest dosing and moving up to the highest). One mouse was sacrificed per group at 1 hour, 3 hours and 5 hours after the drug delivery (2 mice were sacrificed for the 10 mg dose group).\n[…] were collected during sacrifice: upper and lower left lung, right lung, and serum. The order of sample collection was: first blood, then left lung, then right lung. Before removing the right lung, but after removing the left lung, the right lung was lavaged. The lung samples were immediately placed into liquid nitrogen and the blood samples rested for 4 hours at room temperature. After the blood clotted it was centrifuged and the serum was taken into a new tube. Lung and serum samples were then analyzed by mass spectroscopy."}, "caspase 3": {"tested_on": "caspase 3", "test": "Western blot for cleaved caspase 3 in lung homogenates of LPS-injured mice", "format": "in vivo", "procedure": "It was also examined if Compound 1 would reduce the levels of apoptosis associated with injury by LPS. Because the time line of apoptosis takes hours, an additional set of mice were injured with LPS (1.5 mg/kg of 1 mg/ml solution in sterile PBS) followed by initiation of treatment with Compound 1 twenty four hours later. The mice received four doses of Compound 1 (one dose every six hours over a total duration of 24 hours in accordance with the treatment schedule described below with reference to FIG. 8B). The mice were sacrificed and their lungs were harvested and assessed for caspase 3 activity by western blot for cleaved caspase 3 and a caspase 3/7 activity assay obtained from ThermoFisher.\nFIG. 5A is a representative western blot of lung homogenates that were equalized for protein content (i.e., normalized to actin) and probed for whole and cleaved caspase 3. Each lane represents a lung homogenate sample (40 μg) from an individual mouse. Lane 510 depicts a lung homogenate sample from a control mouse that was not administered LPS or Compound 1. Lanes 520 and 530 depict lung homogenate samples from two mice that were administered LPS but were not treated with Compound 1. […]\nFIG. 5B is the relative densitometric quantification of western blots for cleaved caspase 3: whole caspase ratio. […]"}, "neutrophils (PMN)": {"tested_on": "neutrophils (PMN)", "test": "Myeloperoxidase staining of lung sections, LPS-injured mice, single inhaled dose", "format": "in vivo", "details": "LPS treated mice", "procedure": "Since substantial literature indicates neutrophils (PMN) are critical mediators of inflammatory damage in injured lung, we next assessed if inhaled Compound 1 attenuated PMN infiltration of LPS injured lungs. To achieve this, mice were injured with LPS and 24 h later received a single inhaled dose of Compound 1 and were sacrificed 1 hour after dosing. PMN infiltration was assessed by examining lung sections (qualitatively) and BALF (quantitatively) from Compound 1 treated and untreated mice. To assess the effects of Compound 1 on PMN in situ, paraffin embedded lung sections (prepared as described previously) were stained for myeloperoxidase, a PMN marker."}, "LPS injured mice": {"tested_on": "LPS injured mice", "test": "Lung injury score (LIS) and H&E sections, LPS-injured mice, q6h x 4 doses", "format": "in vivo"}, "integrin β1": {"tested_on": "integrin β1", "test": "Integrin β1 immunofluorescent staining of human neutrophils", "format": "cell-based", "details": "Compound 1 treatment for 1 hour, n=3, p<0.05", "from_the_text": "Regulation of cell motility by the integrin β1 subunit is well-documented in multiple cell types, with several lines of evidence indicating MMPs play a significant role in expression and cellular localization of integrin β1 during neutrophil migration (Dumin J A, et al. Pro-collagenase-1 (matrix metalloproteinase-1) binds the alpha(2)beta(1) integrin upon release from keratinocytes migrating on type I collagen. J Biol Chem 2001; 276(31); Ugarte-Berzal E, et al. A 17-residue sequence from the matrix metalloproteinase-9 (MMP-9) hemopexin domain binds alpha4beta1 integrin and inhibits MMP-9-induced functions in chronic lymphocytic leukemia B cells. J Biol Chem 2012; 287(33)). To determine if MMP inhibition by Compound 1 interfered with integrin β1 expression in human neutrophils, cells were seeded onto glass chamber slides followed by Compound 1 treatment for 1 hour. Cells were fixed and immunofluorescent staining was performed for integrin β1 and staining intensity was measured using NIH ImageJ and standardized to the number of cells per field."}}, "data": [{"substance": "butanamide, N-hydroxy-2-[[(4-hydroxyphenyl)sulfonyl](3-pyridinylmethyl)amino]-3-methyl, hydrochloride, (2R) [Compound 1]", "values": [{"measurement": "Mouse Lung MMI 270", "setting": "[1]; High Dose (10 mg, ~35 mg/kg, nebulized), 1 hour later, Left Lung Lower Lobe", "value": 1415.95, "unit": "ng/g"}, {"measurement": "Mouse Lung MMI 270", "setting": "[1]; High Dose (10 mg, ~35 mg/kg, nebulized), 1 hour later, Right Lung Lower Lobe", "value": 598.24, "unit": "ng/g"}, {"measurement": "Mouse Serum MMI 270", "setting": "[1]; High Dose (10 mg, ~35 mg/kg, nebulized), 1 hour later", "value": 87.99, "unit": "ng/mL"}, {"measurement": "Mouse Lung MMI 270", "setting": "[1]; High Dose (10 mg, ~35 mg/kg, nebulized), 3 hour later, Left Lung Lower Lobe", "value": 119.51, "unit": "ng/g"}, {"measurement": "Mouse Lung MMI 270", "setting": "[1]; High Dose (10 mg, ~35 mg/kg, nebulized), 3 hour later, Right Lung Lower Lobe", "value": 50.75, "unit": "ng/g"}, {"measurement": "Mouse Serum MMI 270", "setting": "[1]; High Dose (10 mg, ~35 mg/kg, nebulized), 3 hour later", "value": 7.93, "unit": "ng/mL"}, {"measurement": "Mouse Lung MMI 270", "setting": "[1]; High Dose (10 mg, ~35 mg/kg, nebulized), 5 hour later, Left Lung Lower Lobe", "value": 70.67, "unit": "ng/g"}, {"measurement": "Mouse Lung MMI 270", "setting": "[1]; High Dose (10 mg, ~35 mg/kg, nebulized), 5 hour later, Right Lung Lower Lobe", "value": 23.36, "unit": "ng/g"}, {"measurement": "Mouse Serum MMI 270", "setting": "[1]; High Dose (10 mg, ~35 mg/kg, nebulized), 5 hour later", "value": 3.79, "unit": "ng/mL"}, {"measurement": "Mouse Lung MMI 270", "setting": "[1]; Low Dose (2 mg, ~5 mg/kg, nebulized), 1 hour later, Left Lung Lower Lobe", "value": 102.10, "unit": "ng/g"}, {"measurement": "Mouse Lung MMI 270", "setting": "[1]; Low Dose (2 mg, ~5 mg/kg, nebulized), 1 hour later, Right Lung Lower Lobe", "value": 155.55, "unit": "ng/g"}, {"measurement": "Mouse Serum MMI 270", "setting": "[1]; Low Dose (2 mg, ~5 mg/kg, nebulized), 1 hour later", "value": 2.97, "unit": "ng/mL"}, {"measurement": "Mouse Lung MMI 270", "setting": "[1]; Low Dose (2 mg, ~5 mg/kg, nebulized), 3 hour later, Left Lung Lower Lobe", "value": 42.92, "unit": "ng/g"}, {"measurement": "Mouse Lung MMI 270", "setting": "[1]; Low Dose (2 mg, ~5 mg/kg, nebulized), 3 hour later, Right Lung Lower Lobe", "value": 12.60, "unit": "ng/g"}, {"measurement": "Mouse Serum MMI 270", "setting": "[1]; Low Dose (2 mg, ~5 mg/kg, nebulized), 3 hour later", "value": "<LLOQ"}, {"measurement": "Mouse Lung MMI 270", "setting": "[1]; Low Dose (2 mg, ~5 mg/kg, nebulized), 5 hour later, Left Lung Lower Lobe", "value": 13.21, "unit": "ng/g"}, {"measurement": "Mouse Lung MMI 270", "setting": "[1]; Low Dose (2 mg, ~5 mg/kg, nebulized), 5 hour later, Right Lung Lower Lobe", "value": "<LLOQ"}, {"measurement": "Mouse Serum MMI 270", "setting": "[1]; Low Dose (2 mg, ~5 mg/kg, nebulized), 5 hour later", "value": "<LLOQ"}, {"measurement": "Mouse Lung MMI 270", "setting": "[1]; Medium Dose (5 mg, ~12 mg/kg, nebulized), 1 hour later, Left Lung Lower Lobe", "value": 465.18, "unit": "ng/g"}, {"measurement": "Mouse Lung MMI 270", "setting": "[1]; Medium Dose (5 mg, ~12 mg/kg, nebulized), 1 hour later, Right Lung Lower Lobe", "value": 127.68, "unit": "ng/g"}, {"measurement": "Mouse Serum MMI 270", "setting": "[1]; Medium Dose (5 mg, ~12 mg/kg, nebulized), 1 hour later", "value": 20.06, "unit": "ng/mL"}, {"measurement": "Mouse Lung MMI 270", "setting": "[1]; Medium Dose (5 mg, ~12 mg/kg, nebulized), 3 hour later, Left Lung Lower Lobe", "value": 49.60, "unit": "ng/g"}, {"measurement": "Mouse Lung MMI 270", "setting": "[1]; Medium Dose (5 mg, ~12 mg/kg, nebulized), 3 hour later, Right Lung Lower Lobe", "value": 18.92, "unit": "ng/g"}, {"measurement": "Mouse Serum MMI 270", "setting": "[1]; Medium Dose (5 mg, ~12 mg/kg, nebulized), 3 hour later", "value": 3.40, "unit": "ng/mL"}, {"measurement": "Mouse Lung MMI 270", "setting": "[1]; Medium Dose (5 mg, ~12 mg/kg, nebulized), 5 hour later, Left Lung Lower Lobe", "value": 26.04, "unit": "ng/g"}, {"measurement": "Mouse Lung MMI 270", "setting": "[1]; Medium Dose (5 mg, ~12 mg/kg, nebulized), 5 hour later, Right Lung Lower Lobe", "value": 13.55, "unit": "ng/g"}, {"measurement": "Mouse Serum MMI 270", "setting": "[1]; Medium Dose (5 mg, ~12 mg/kg, nebulized), 5 hour later", "value": "<LLOQ"}, {"measurement": "caspase 3 activation (cleaved caspase-3, western blot)", "setting": "caspase 3; LPS 1.5 mg/kg, four inhaled doses, one every six hours, starting 24 hours after LPS, lung homogenate", "value": "absent or reduced"}, {"measurement": "cleaved:whole caspase 3 ratio (densitometry)", "setting": "caspase 3; LPS-CGS group, four inhaled doses q6h starting 24 hours after LPS, n≥5 (LPS-PBS 2.57±1.15, PBS-PBS 0.25±0.15)", "value": "0.59±0.18", "unit": "AU"}, {"measurement": "PMN infiltration into the lung parenchyma (myeloperoxidase staining)", "setting": "neutrophils (PMN)", "value": "attenuates PMN infiltration into the lung parenchyma"}, {"measurement": "Lung Injury Score (LIS)", "setting": "LPS injured mice; LPS 1.5 mg/kg, four doses (12 mg/kg) via nebulizer every 6 hours from 24 hours after LPS, n=5 (LPS only 0.524±0.054, PBS only 0.188±0.025)", "value": "0.277±0.031", "unit": "LIS"}, {"measurement": "inflammation in H&E stained lung sections (qualitative)", "setting": "LPS injured mice; LPS then four nebulized doses every 6 hours, vs mice only receiving LPS", "value": "reduced inflammation"}, {"measurement": "integrin β1 fluorescence intensity per cell", "setting": "integrin β1", "value": "2.88±1.23", "unit": "RFU"}]}]}
